Source: US11279735B2, “Cyclic peptide antibiotics” (priority 2017, dated 2022)
Converted amounts (≈) assume the structure as drawn. Where two headings read alike, the source gives them in different places.

Test system: Escherichia coli (E. coli) strain CFT073 ATCC 700928
Assay type: cell-based
Description: In vitro antimicrobial activity of each compound was determined by measuring minimal inhibitor concentrations (MICs) using the broth micro-dilution technique as approved by the Clinical and Laboratory Standards Institute (CLSI) (Methods for Dilution Antimicrobial Susceptibility Tests for Bacteria that Grow Aerobically; Approved Standard—Eighth Edition. CLSI document M07-A8. Wayne, Pa.: Clinical and Laboratroy Standards; 2009). Antibacterial activity was measure against Escherichia coli (E. coli) strain CFT073 ATCC 700928, which is a clinically relevant Gram-negative strain. Cells were inoculated onto plates of Mueller Hinton Agar and grown at 37° C. for 16-18 hours. Inocula suspensions were prepared by scraping cells into 1 mL of testing media (Mueller Hinton II cation adjusted Broth supplemented with 0.002% v/v Tween-80) and diluting to a final OD600 nm of 0.01.
Test compounds were prepared in DMSO at a concentration of 100 uM The compounds were tested under several different dilution formats and the data are reported in Tables 6, 7 and 8. In protocol 1, the compound stocks were diluted into testing media at a concentration of 64 μg/ml and serial 2-fold dilutions were made in the same media, in 96-well U bottom microtiter dishes, for a total of 10 compound concentrations. In protocol 2, the compound stocks were diluted into testing media at a concentration of 4 μg/mL and serial 2-fold dilutions were made in the same media, in 96-well U bottom microtiter dishes, for a total of 10 compound concentrations. In protocol 3, compound stocks were diluted into testing media at a concentration of 0.5 μg/mL, with serial 2-fold dilutions conducted as described above. In protocol 4, compound stocks were diluted into testing media at a concentration of 0.13 μg/mL, with serial 2-fold dilutions conducted as described above. Inocula suspensions were added to the 2-fold serial dilutions of test compounds to a final density of OD OD600 nm of 0.0005 and incubated at 35° C. for 22 hours.

Structure (SMILES)	MIC (ATCC 700928, 22 h) [µM]	MIC (E. coli CFT073 ATCC 700928, Mueller Hinton II cation adjusted Broth with 0.002% v/v Tween-80, 35° C. for 22 hours, lowest concentration that completely prevented bacterial growth) [µM]
CCCCCC[C@H]1OC(=O)CNC(=O)[C@H](CCO)NC(=O)[C@H](CN)NC(=O)[C@H]([C@H](C)CC)NC(=O)[C@H](CC(C)C)N(C)C(=O)[C@@H]1C [Example 13, (6S,9S,12S,15S,18R,19R)-9-(aminomethyl)-19-hexyl-6-(2-hydroxyethyl)-15-isobutyl-16,18-dimethyl-12-[(1R)-1-methylpropyl]-1-oxa-4,7,10,13,16-pentazacyclononadecane-2,5,8,11,14,17-hexone]	50 (≈ 32.7 µg/mL)	
CCCCCCCCCC[C@H]1OC(=O)CNC(=O)[C@H]([C@H](C)O)NC(=O)[C@H](CN)NC(=O)[C@H]([C@H](C)CC)NC(=O)[C@H](CCC)N(C)C(=O)[C@@H]1C [Example 14, (6S,9S,12S,15S,18R,19R)-9-(aminomethyl)-19-decyl-6-[(1S)-1-hydroxyethyl]-16,18-dimethyl-12-[(1R)-1-methylpropyl]-15-propyl-1-oxa-4,7,10,13,16-pentazacyclononadecane-2,5,8,11,14,17-hexone]	3.1 (≈ 2.16 µg/mL)	
CCCCCCCCCC[C@H]1OC(=O)CNC(=O)[C@H]([C@H](C)O)NC(=O)[C@H](CN)NC(=O)[C@H]([C@H](C)CC)NC(=O)[C@H](CCC(C)C)N(C)C(=O)[C@@H]1C [Example 15, (6S,9S,12S,15S,18R,19R)-9-(aminomethyl)-19-decyl-6-[(1S)-1-hydroxyethyl]-15-isopentyl-16,18-dimethyl-12-[(1R)-1-methylpropyl]-1-oxa-4,7,10,13,16-pentazacyclononadecane-2,5,8,11,14,17-hexone]	6.3 (≈ 4.57 µg/mL)	
CCCCCCCCCC[C@H]1OC(=O)CNC(=O)[C@H]([C@H](C)O)NC(=O)[C@H](CN)NC(=O)[C@H]([C@H](C)CC)NC(=O)[C@H](CC2CCC2)N(C)C(=O)[C@@H]1C [Example 16, (6S,9S,12S,15S,18R,19R)-9-(aminomethyl)-15-(cyclobutylmethyl)-19-decyl-6-[(1S)-1-hydroxyethyl]-16,18-dimethyl-12-[(1R)-1-methylpropyl]-1-oxa-4,7,10,13,16-pentazacyclononadecane-2,5,8,11,14,17-hexone]	6.3 (≈ 4.55 µg/mL)	
CCCCCCCCCC[C@H]1OC(=O)CNC(=O)[C@H](CO)NC(=O)[C@H](CO)NC(=O)[C@H]([C@@H](C)CC)NC(=O)[C@H](CC(C)C)N(C)C(=O)[C@@H]1C [Example 18, (6S,9S,12S,15S,18R,19R)-19-decyl-6,9-bis(hydroxymethyl)-15-isobutyl-16,18-dimethyl-12-[(1S)-1-methylpropyl]-1-oxa-4,7,10,13,16-pentazacyclononadecane-2,5,8,11,14,17-hexone]		19 (≈ 13.3 µg/mL)
CCCCCCCCCC[C@H]1OC(=O)CNC(=O)[C@H](CN)NC(=O)[C@H](CO)NC(=O)[C@H]([C@@H](C)CC)NC(=O)[C@H](CC(C)C)N(C)C(=O)[C@@H]1C [Example 19, (6S,9S,12S,15S,18R,19R)-6-(aminomethyl)-19-decyl-9-(hydroxymethyl)-15-isobutyl-16,18-dimethyl-12-[(1S)-1-methylpropyl]-1-oxa-4,7,10,13,16-pentazacyclononadecane-2,5,8,11,14,17-hexone]	25 (≈ 17.4 µg/mL)	
CCCCCCCCCC[C@H]1OC(=O)CNC(=O)[C@H](CCN)NC(=O)[C@H](CO)NC(=O)[C@H]([C@@H](C)CC)NC(=O)[C@H](CC(C)C)N(C)C(=O)[C@@H]1C [Example 20, (6S,9S,12S,15S,18R,19R)-6-(2-aminoethyl)-19-decyl-9-(hydroxymethyl)-15-isobutyl-16,18-dimethyl-12-[(1S)-1-methylpropyl]-1-oxa-4,7,10,13,16-pentazacyclononadecane-2,5,8,11,14,17-hexone]	50 (≈ 35.5 µg/mL)	
CCCCCCCCCC[C@H]1OC(=O)CNC(=O)[C@H](C(C)(C)O)NC(=O)[C@H](CO)NC(=O)[C@H]([C@@H](C)CC)NC(=O)[C@H](CC(C)C)N(C)C(=O)[C@@H]1C [Example 21, (6S,9S,12S,15S,18R,19R)-19-decyl-9-(hydroxymethyl)-6-(1-hydroxy-1-methyl-ethyl)-15-isobutyl-16,18-dimethyl-12-[(1S)-1-methylpropyl]-1-oxa-4,7,10,13,16-pentazacyclononadecane-2,5,8,11,14,17-hexone]	50 (≈ 36.3 µg/mL)	
CCCCCCCCCC[C@H]1OC(=O)CNC(=O)[C@H]([C@H](C)O)NC(=O)[C@H](CO)NC(=O)[C@H]([C@@H](C)CC)NC(=O)[C@H](CC(C)C)N(C)C(=O)[C@@H]1C [Example 22, (6S,9S,12S,15S,18R,19R)-19-decyl-6-[(1S)-1-hydroxyethyl]-9-(hydroxymethyl)-15-isobutyl-16,18-dimethyl-12-[(1S)-1-methylpropyl]-1-oxa-4,7,10,13,16-pentazacyclononadecane-2,5,8,11,14,17-hexone]	13 (≈ 9.26 µg/mL)	
CCCCCCCCCC[C@H]1OC(=O)CNC(=O)[C@H]([C@H](C)O)NC(=O)[C@H](CN)NC(=O)[C@H]([C@@H](C)CC)NC(=O)[C@H](CC(C)C)N(C)C(=O)[C@@H]1C [Example 23, (6S,9S,12S,15S,18R,19R)-9-(aminomethyl)-19-decyl-6-[(1S)-1-hydroxyethyl]-15-isobutyl-16,18-dimethyl-12-[(1S)-1-methylpropyl]-1-oxa-4,7,10,13,16-pentazacyclononadecane-2,5,8,11,14,17-hexone]	3.1 (≈ 2.2 µg/mL)	
CCCCCCCCCC[C@H]1OC(=O)CNC(=O)[C@H](CC)NC(=O)[C@H](CO)NC(=O)[C@H]([C@@H](C)CC)NC(=O)[C@H](CC(C)C)N(C)C(=O)[C@@H]1C [Example 24, (6S,9S,12S,15S,18R,19R)-19-decyl-16-ethyl-9-(hydroxymethyl)-15-isobutyl-16,18-dimethyl-12-[(1S)-1-methylpropyl]-1-oxa-4,7,10,13,16-pentazacyclononadecane-2,5,8,11,14,17-hexone]	13 (≈ 9.05 µg/mL)	
CCCCCCCCCC[C@H]1OC(=O)CNC(=O)[C@H]([C@H](C)O)NC(=O)[C@H](CCN)NC(=O)[C@H]([C@@H](C)CC)NC(=O)[C@H](CC(C)C)N(C)C(=O)[C@@H]1C [Example 25, (6S,9S,12S,15S,18R,19R)-9-(2-aminoethyl)-19-decyl-6-[(1S)-1-hydroxyethyl]-15-isobutyl-16,18-dimethyl-12-[(1S)-1-methylpropyl]-1-oxa-4,7,10,13,16-pentazacyclononadecane-2,5,8,11,14,17-hexone]	25 (≈ 18.1 µg/mL)	
CCCCCCCCCC[C@H]1OC(=O)CNC(=O)[C@H]([C@H](C)O)NC(=O)[C@H](CNC(=N)N)NC(=O)[C@H]([C@@H](C)CC)NC(=O)[C@H](CC(C)C)N(C)C(=O)[C@@H]1C [Example 26, 1-[[(6S,9S,12S,15S,18R,19R)-19-decyl-6-[(1S)-1-hydroxyethyl]-15-isobutyl-16,18-dimethyl-12-[(1S)-1-methylpropyl]-2,5,8,11,14,17-hexaoxo-1-oxa-4,7,10,13,16-pentazacyclononadec-9-yl]methyl]guanidine]	50 (≈ 37.6 µg/mL)	
CCCCCCCCCC[C@H]1OC(=O)CNC(=O)[C@H](CCO)NC(=O)[C@H](CO)NC(=O)[C@H]([C@@H](C)CC)NC(=O)[C@H](CC(C)C)N(C)C(=O)[C@@H]1C [Example 27, (6S,9S,12S,15S,18R,19R)-19-decyl-6-(2-hydroxyethyl)-9-(hydroxymethyl)-15-isobutyl-16,18-dimethyl-12-[(1S)-1-methylpropyl]-1-oxa-4,7,10,13,16-pentazacyclononadecane-2,5,8,11,14,17-hexone]	13 (≈ 9.26 µg/mL)	
CCCCCCCCCC[C@H]1OC(=O)CNC(=O)[C@H](Cc2c[nH]cn2)NC(=O)[C@H](CO)NC(=O)[C@H]([C@@H](C)CC)NC(=O)[C@H](CC(C)C)N(C)C(=O)[C@@H]1C [Example 29, (6S,9S,12S,15S,18R,19R)-19-decyl-9-(hydroxymethyl)-6-(1H-imidazol-4-ylmethyl)-15-isobutyl-16,18-dimethyl-12-[(1S)-1-methylpropyl]-1-oxa-4,7,10,13,16-pentazacyclononadecane-2,5,8,11,14,17-hexone]	13 (≈ 9.72 µg/mL)	
CCCCCCCCCC[C@H]1OC(=O)CNC(=O)[C@H](C)NC(=O)[C@H](CO)NC(=O)[C@H]([C@@H](C)CC)NC(=O)[C@H](CC(C)C)N(C)C(=O)[C@@H]1C [Example 30, (6S,9S,12S,15S,18R,19R)-19-decyl-9-(hydroxymethyl)-15-isobutyl-6,16,18-trimethyl-12-[(1S)-1-methylpropyl]-1-oxa-4,7,10,13,16-pentazacyclononadecane-2,5,8,11,14,17-hexone]	13 (≈ 8.86 µg/mL)	
CCCCCCCCCC[C@H]1OC(=O)CNC(=O)[C@H](CO)NC(=O)[C@H](CO)NC(=O)[C@H]([C@@H](C)CC)NC(=O)[C@H](CCCC)N(C)C(=O)[C@@H]1C [Example 31, (6S,9S,12S,15S,18R,19R)-15-butyl-19-decyl-6,9-bis(hydroxymethyl)-16,18-dimethyl-12-[(1S)-1-methylpropyl]-1-oxa-4,7,10,13,16-pentazacyclononadecane-2,5,8,11,14,17-hexone]	13 (≈ 9.07 µg/mL)	
